Measurements taken from the NIST ThermoML archive (doi:10.1016/j.fluid.2018.10.006).

Conditions: 525.42 K, Fluid (supercritical or subcritical phases), Coaxial cylinder method

CCCCCC [hexane]
Conditions | thermal conductivity [W/m/K]
2500 kPa | 0.04372
2740 kPa | 0.04444
2850 kPa | 0.04444
3000 kPa | 0.04701
3050 kPa | 0.04756
3100 kPa | 0.04855
3150 kPa | 0.04855
3200 kPa | 0.04958
3250 kPa | 0.05034
3300 kPa | 0.05065
3350 kPa | 0.05177
3400 kPa | 0.05311
3450 kPa | 0.0538
3500 kPa | 0.05526
3550 kPa | 0.05659
3600 kPa | 0.05777
3650 kPa | 0.059
3700 kPa | 0.0603
3750 kPa | 0.06164
3800 kPa | 0.06281
3850 kPa | 0.06378
3900 kPa | 0.06477
4000 kPa | 0.06632
4100 kPa | 0.06685
4200 kPa | 0.06685
4300 kPa | 0.06685
4400 kPa | 0.06684
4500 kPa | 0.06684
4600 kPa | 0.06684
4700 kPa | 0.06683
4800 kPa | 0.06683
4900 kPa | 0.06848
5000 kPa | 0.06848
5100 kPa | 0.06848
5200 kPa | 0.06848
5300 kPa | 0.07141
5400 kPa | 0.07172
5500 kPa | 0.07172
5600 kPa | 0.07172
5700 kPa | 0.07203
5800 kPa | 0.07203
5900 kPa | 0.07218
6000 kPa | 0.07233
6100 kPa | 0.07249
6200 kPa | 0.07249
6300 kPa | 0.07265
6400 kPa | 0.07281
6500 kPa | 0.0728
6600 kPa | 0.07296
6700 kPa | 0.07312
6800 kPa | 0.07328
6900 kPa | 0.07348
7000 kPa | 0.07361
7100 kPa | 0.07377
7200 kPa | 0.07393
7317 kPa | 0.0741
7328 kPa | 0.07412
7405 kPa | 0.07412
7500 kPa | 0.07428
7600 kPa | 0.07445
7700 kPa | 0.07462
7800 kPa | 0.07478
7900 kPa | 0.07482
8000 kPa | 0.07495
8100 kPa | 0.07512
8200 kPa | 0.07529
8300 kPa | 0.07546
8400 kPa | 0.07546
8500 kPa | 0.07546
8600 kPa | 0.07563
8700 kPa | 0.07583
8800 kPa | 0.07597
8900 kPa | 0.07614
9000 kPa | 0.07632
9100 kPa | 0.07632
9200 kPa | 0.07649
9300 kPa | 0.07667
9400 kPa | 0.07674
9500 kPa | 0.07684
9600 kPa | 0.07701
9700 kPa | 0.07712
9800 kPa | 0.07726
